Laboratory results from patent US12384789B2, “Compounds for treating Huntington's disease” (PTC Therapeutics, Inc., priority 2017, dated 2025).

What follows are compounds tested on Endogenous Huntingtin Protein (assay: Endogenous Huntingtin Protein Assay (Meso Scale Discovery ELISA-based electrochemiluminescence)). Conditions: MSD electrochemiluminescence, Table 1.
Format: cell-based
In short: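 MSD electrochemiluminescence sandwich ELISA: MW1 (expanded polyQ) or MAB2166 capture antibody at 1 μg/mL, samples incubated overnight at 4° C. Detection with rabbit monoclonal #5656S then SULFO-TAG anti-rabbit antibody, each 0.25 μg/mL for 1 h at room temperature.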

IC50, ≤ 100 nM:
CCCc1cc(-c2cc(F)c3cc(C4CCNCC4)nnc3c2)nn2cc(C)nc12 [Compound 204, 5-fluoro-7-(2-methyl-8-propylimidazo[1,2-b]pyridazin-6-yl)-3-(piperidin-4-yl)cinnoline]
CCN1CCC(c2cc3c(F)cc(-c4cc(F)c5nc(C)cn5c4)cc3nn2)CC1 [Compound 102, 3-(1-ethylpiperidin-4-yl)-5-fluoro-7-(8-fluoro-2-methylimidazo[1,2-a]pyridin-6-yl)cinnoline]
Cc1cn2nc(-c3cc(F)c4cc(C5CCN(C)CC5)nnc4c3)cc(C#N)c2n1 [Compound 176, 6-[5-fluoro-3-(1-methylpiperidin-4-yl)cinnolin-7-yl]-2-methylimidazo[1,2-b]pyridazine-8-carbonitrile]
CCN1CCC(c2cc(F)c3cc(-c4cc(F)c5nn(C)cc5c4)nnc3c2)CC1 [Compound 154, 7-(1-ethylpiperidin-4-yl)-5-fluoro-3-(7-fluoro-2-methyl-2H-indazol-5-yl)cinnoline]
CCc1cc(-c2cc(F)c3cc(C4CCN(CC)CC4)nnc3c2)nn2cc(C)nc12 [Compound 121, 7-(8-ethyl-2-methylimidazo[1,2-b]pyridazin-6-yl)-3-(1-ethylpiperidin-4-yl)-5-fluorocinnoline]
CCN1CCC(c2cc(F)c3cc(-c4cc(C)c5nn(C)cc5c4)nnc3c2)CC1 [Compound 183, 3-(2,7-dimethyl-2H-indazol-5-yl)-7-(1-ethylpiperidin-4-yl)-5-fluorocinnoline]
